Laboratory results from patent US11253594B2, “Drug combinations for protecting against neuronal cell death” (UNIVERSITY OF PITTSBURGH-OF THE COMMONWEALTH SYSTEM OF …, priority 2017, dated 2022).
Like-named read-outs stand apart in the source and are kept apart here.

Assays:
STHdh^Q111 cells [1] = assay type: cell-based; details: STHdh^Q111 cells, PI assay conditions
[2] = system: pCREB in the nucleus of STHdh^Q111 cells; assay: Nuclear pCREB high content analysis (surrogate marker for PKA activity); assay type: cell-based, mouse; details: 10 μM H89 co-incubated with protective compounds
From the text: The concentrations used were chosen to be on plateau of their respective activity curves (see FIG. 3). […] Analysis is from triplicate samples run in four independent experiments (Error bars are +/−SE). T-test was used to assess changes in the percent recovery levels relative to the STHdh^Q111 cells treated with compound without H89. […] Analysis was from triplicate samples run in four independent experiments (Error bars are +/−SE). T-test was used to assess changes in the pCREB intensity relative to the STHdhQ111 cells treated with compound without H89.
H89 has been used extensively in the literature as a selective and potent inhibitor of PKA. If the protection from cell death by these compounds involved activation of PKA, then the addition of an inhibitor of PKA would be expected to reverse the protective effects of the compounds. […] Since the primary canonical mechanism of sodium nitroprusside is activation of PKG, and given that H89 is ˜10-fold selective for PKA over PKG, the absence of a marked effect with sodium nitroprusside is not unexpected. […] To confirm inhibition of PKA activity by H89 under the conditions of the PI assay, the levels of nuclear pCREB were measured using high content analysis. Consistent with the heterogeneity seen in the response of the STHdh^Q111 cells to protection by the compounds, a heterogeneous distribution of pCREB levels was also detected. […]

PKA = PKA (Homo sapiens, UniProt P17612); details: cited from earlier work
STHdh^Q111 cells [3] = assay: 384-well PI (propidium iodide) assay, protection from mHTT induced cell death; assay type: cell-based, mouse; details: compound titrations, serum deprived STHdh^Q111 cells
Method: The well-established STHdh^Q111 cell model for HD was employed to identify compounds that can protect neuronal cells from mHTT-dependent cell death. […] The propidium iodide (PI) readout enables an unbiased assessment of cell death by measuring an irreversible step that is common to all cytotoxic mechanisms.
The stress conditions for testing compounds involved incubation of the cells in serum-free medium at 37° C. and 5% CO2.
Prior to compound treatment, medium was removed and the cells washed once with PBS (pH=7.4) after which 45 μl of complete medium was added. Compounds in 5 μl complete medium were added to cells. […] Compounds in serum free medium (5 μl) were added and cells were incubated at 37° C. and 5% CO2.
Image analysis was carried out using the Multiwavelength Cell Scoring application in the MetaXpress software. The nuclear compartment was identified in Ch1 with a threshold intensity of 2,000 above background and the Texas Red compartment was identified in Ch2 with a threshold intensity of 20,000 above background.
For the analyses presented here the Percent Recovery was calculated from the Percent PI positive cells by:
[formula] where positive controls are the STHdh^Q7 cells, and negative controls are the STHdh^Q111 cells treated with DMSO
The LOPAC library was screened in the 384-well PI assay at 30, 10, and 3 μM.

cells expressing mHTT [4] = assay: Example 2 screen of a larger mechanistically diverse chemical library for protection from mHTT-induced cytotoxicity
cells expressing mHTT [5] = system: cells expressing mHTT

Structure (SMILES): O=S(=O)(NCCNC/C=C/c1ccc(Br)cc1)c1cccc2cnccc12 [Combination H89]
- toxicity / protection with or of the PKA inhibitor (STHdh^Q111 cells [1]): no significant protection or toxicity
- levels of nuclear pCREB [2]: decreased
- selectivity for PKA over PKG (PKA): ~10 fold

Structure (SMILES): CCCn1c(C)c(C(=O)c2cccc3ccccc23)c2ccccc21 [JWH-015]
- neuroprotective activity in the PI assay (STHdh^Q111 cells [3]): confirmed neuroprotective activity
- protection from mHTT-induced cytotoxicity in the screen (cells expressing mHTT [4]): demonstrating protection

Structure (SMILES): CNC(=O)COC(=O)N1CCC(CCc2ccc(Cl)cc2)CC1 [SA 57]
- protection from mHTT-induced cytotoxicity in the screen (cells expressing mHTT [5]): demonstrating protection
